From ChEMBL document CHEMBL1201862, “PubChem BioAssay data set” (2004)
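96-well plates; 48 h exposure; 5 concentrations. Endpoints by linear interpolation between flanking doses. Not reached: highest tested concentration assigned. GI50 marks 50% less growth.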 Active and inactive are the calls of the source. No stated cut-off is given here; in the data, active = GI50 up to about 1.1 µM and inactive = higher.

Columns and labels:
Experiment in all cases: inhibition of tumour cell growth, NCI panel, 48 h
UACC-62 = system: UACC-62
SK-OV-3 = system: SK-OV-3
NCI-H23 = system: NCI-H23
LOX IMVI = system: LOX IMVI
K562 = system: K562
RXF 393 = system: RXF 393
OVCAR-4 = system: OVCAR-4
SF-539 = system: SF-539
SN12C = system: SN12C
TK-10 = system: TK-10
HL-60 = system: HL-60
KM12 = system: KM12
MOLT-4 = system: MOLT-4
EKVX = system: EKVX
Malme-3M = system: Malme-3M
NCI-H226 = system: NCI-H226
OVCAR-5 = system: OVCAR-5
IGROV-1 = system: IGROV-1

Measured: GI50

O=C1c2ccccc2C(=O)C1C(c1ccc(F)cc1)C1C(=O)c2ccccc2C1=O
inactive: UACC-62 > 100 µM | SK-OV-3 > 100 µM | NCI-H23 > 100 µM | LOX IMVI 25.9 µM | K562 > 100 µM | RXF 393 24.8 µM | OVCAR-4 > 100 µM | SF-539 > 100 µM | SN12C > 100 µM | TK-10 > 100 µM | HL-60 37.8 µM | KM12 > 100 µM | MOLT-4 59.4 µM | EKVX > 100 µM | Malme-3M > 100 µM | NCI-H226 > 100 µM | OVCAR-5 > 100 µM

CC(=O)OC1CC2C(C)(C)C(=O)C=C[C@]2(C)C2CCC3(C)C(=CCC3[C@H](CO)C[C@H](O)C(=O)C(C)(C)O)[C@]12C (some centres undefined)
inactive: UACC-62 14.2 µM | SK-OV-3 13.7 µM | NCI-H23 > 10 µM | LOX IMVI 18.2 µM | K562 27 µM | RXF 393 16.5 µM | OVCAR-4 59.8 µM | SF-539 18.7 µM | SN12C 26.4 µM | TK-10 26.5 µM | HL-60 19.5 µM | KM12 19.1 µM | MOLT-4 22.6 µM | EKVX 20.3 µM | Malme-3M 14.7 µM | NCI-H226 20.6 µM | OVCAR-5 31 µM | IGROV-1 21.5 µM

CCCCCCCCCCCc1cc(=O)c2c(O)cccc2o1
inactive: UACC-62 > 100 µM | SK-OV-3 > 100 µM | NCI-H23 > 100 µM | LOX IMVI 37.5 µM | K562 43.7 µM | RXF 393 70.6 µM | OVCAR-4 > 100 µM | SF-539 > 100 µM | SN12C > 100 µM | TK-10 > 100 µM | HL-60 30.5 µM | KM12 54.2 µM | MOLT-4 30.3 µM | EKVX 56.1 µM | Malme-3M > 100 µM | NCI-H226 37.8 µM | OVCAR-5 88.7 µM | IGROV-1 > 100 µM

COc1ccc(C=C(c2ccc(OCc3ccccc3)cc2)c2ccc(OCc3ccccc3)cc2)cc1
inactive: UACC-62 > 100 µM | SK-OV-3 > 100 µM | NCI-H23 > 100 µM | LOX IMVI > 100 µM | RXF 393 > 100 µM | OVCAR-4 > 100 µM | SF-539 > 100 µM | SN12C > 100 µM | TK-10 > 100 µM | HL-60 > 100 µM | KM12 > 100 µM | EKVX > 100 µM | Malme-3M > 100 µM | NCI-H226 > 100 µM | OVCAR-5 > 100 µM | IGROV-1 > 100 µM

N#CC1(N2CCCC2)CCC2(CC1)OCCO2
inactive: UACC-62 > 100 µM | SK-OV-3 > 100 µM | NCI-H23 > 100 µM | LOX IMVI > 100 µM | K562 > 100 µM | RXF 393 > 100 µM | OVCAR-4 > 100 µM | SF-539 > 100 µM | SN12C > 100 µM | TK-10 > 100 µM | HL-60 > 100 µM | KM12 > 100 µM | MOLT-4 > 100 µM | EKVX > 100 µM | Malme-3M > 100 µM | NCI-H226 > 100 µM | OVCAR-5 > 100 µM | IGROV-1 > 100 µM

CCCCCCCCCCn1cccc1/C=C/c1ccc(/C=C/c2cccn2CCCCCCCCCC)cc1
inactive: UACC-62 > 100 µM | SK-OV-3 > 100 µM | NCI-H23 > 100 µM | LOX IMVI > 100 µM | K562 > 100 µM | RXF 393 > 100 µM | OVCAR-4 > 100 µM | SF-539 > 100 µM | SN12C > 100 µM | TK-10 > 100 µM | HL-60 > 100 µM | KM12 > 100 µM | EKVX > 100 µM | Malme-3M > 100 µM | NCI-H226 > 100 µM | OVCAR-5 > 100 µM | IGROV-1 > 100 µM
